Inhibition and IC50 data for 15 molecules are collected here from ChEMBL document CHEMBL3217686, “A new route to indoles via in situ desilylationSonogashira strategy: identification of novel small molecules as potential anti-tuberculosis agents” (Medchemcomm, 2011).

Test [1] deals with Mycobacterium tuberculosis. The test is described as follows: Inhibition of Mycobacterium tuberculosis chorismate mutase expressed in Escherichia coli BL21 (DE3) assessed as conversion of chorismate to prephenate at 50 uM after 5 mins.
Test [2] in a line: (§1) Inhibition of Mycobacterium tuberculosis chorismate mutase expressed in Escherichia coli BL21 (DE3) assessed as conversion of chorismate to prephenate after 5 mins.
Test [3] relates to Mycobacterium tuberculosis. Described as §1.

pIC50: −log10 of the molar value.

Broadly, the inhibition is how much of the control response was suppressed. With `CS(=O)(=O)Nc1ccc(C#N)cc1-c1cc2cc(C#N)ccc2n1S(C)(=O)=O`, the inhibition in test [1] worked out at 20%.

The pIC50 is the negative decadic logarithm of the IC50, by convention in mol/L. As to `CS(=O)(=O)Nc1ccc(F)cc1-c1cc2cc(F)ccc2n1S(C)(=O)=O`, the values for the inhibition in test [1] and in test [3] were 69% and “Dose-dependent effect”, respectively. Also, the negative logarithm of the IC50 (pIC50) in test [2] was 4.77.

With `Cc1ccc(S(=O)(=O)Nc2ccccc2-c2cc3ccccc3n2S(=O)(=O)c2ccc(C)cc2)cc1`, the inhibition in test [1] came to 12%.

On to `Cc1ccc(S(=O)(=O)Nc2ccc(C)cc2-c2cc3cc(C)ccc3n2S(=O)(=O)c2ccc(C)cc2)cc1`, for which the inhibition in test [1] amounted to 15%.

As to `COc1ccc(NS(C)(=O)=O)c(-c2cc3cc(OC)ccc3n2S(C)(=O)=O)c1`, the inhibition in test [1] was 50%.

For `CC(=O)c1ccc(NS(C)(=O)=O)c(-c2cc3cc(C(C)=O)ccc3n2S(C)(=O)=O)c1`, in test [1], the inhibition was found to be 30%.

`COc1ccc(CCNc2c([N+](=O)[O-])cc(C(=O)O)cc2S(N)(=O)=O)cc1OC`: the negative-log IC50 (pIC50) in test [2] is more than 5.00.

Consider `Cc1ccc(S(=O)(=O)Nc2ccc(F)cc2-c2cc3cc(F)ccc3n2S(=O)(=O)c2ccc(C)cc2)cc1`, for which, in test [1], the inhibition came to 15%.

As for `Cc1ccc(NS(C)(=O)=O)c(-c2cc3cc(C)ccc3n2S(C)(=O)=O)c1`, the inhibition in test [1] turned out to be 42%.

Take `CS(=O)(=O)Nc1ccccc1-c1cc2ccccc2n1S(C)(=O)=O`: the inhibition in test [1] came to 40%.

Consider `CS(=O)(=O)Nc1ccc(C(F)(F)F)cc1-c1cc2cc(C(F)(F)F)ccc2n1S(C)(=O)=O`, for which, in test [1], the inhibition amounted to 25%.

As to `Cc1ccc(S(=O)(=O)Nc2ccc(C(F)(F)F)cc2-c2cc3cc(C(F)(F)F)ccc3n2S(=O)(=O)c2ccc(C)cc2)cc1`, the inhibition in test [1] was found to be 12%.

For `Cc1ccc(S(=O)(=O)Nc2ccc(Cl)cc2-c2cc3cc(Cl)ccc3n2S(=O)(=O)c2ccc(C)cc2)cc1`, in test [1], the inhibition is 10%.

On to `CS(=O)(=O)Nc1ccc([N+](=O)[O-])cc1-c1cc2cc([N+](=O)[O-])ccc2n1S(C)(=O)=O`, for which the inhibition in test [1] was found to be 15%.

With `CS(=O)(=O)Nc1ccc(Cl)cc1-c1cc2cc(Cl)ccc2n1S(C)(=O)=O`, the inhibition in test [1] is 45%.
